The record followed here is patent publication US9801844B2, “Methods and compositions for the treatment of cancer” (priority 2012, dated 2017).

The test system of assay [1] is SKOV3 (Her2 overexpressing) human ovarian cancer cells. Nature of the assay: MTT cell proliferation assay on SKOV3 cells. Conditions: SKOV3, 96 h. The format is cell-based. Here is the method:
SKOV3 (Her2 overexpressing) ovarian cancer cells (ATCC, Manassas, Va.), were grown in McCoy's media (Gibco BRL Life Technologies, Inc., Rockville, Md.) containing 10% (v/v) fetal bovine serum (FBS) (Gibco BRL) at 37° C., 5% C02, plus Penn-Strep (Sigma).
The MTT [3-(4,5-dimethyl-2-thiazol)-2,5-diphenyl-2H tetrazolilum bromide] (Dojindo; Tokyo, Japan) cell proliferation assay system (Roche Diagnostic, Mannheim, Germany) was used to determine the sensitivity of the cell lines to agents. Cells were seeded at 1×10^4 cells/well in 96-well plates and allowed to attach for 24 h. The medium was replaced with fresh medium containing DMSO or compound. The cells were treated for 96 h, after which the media was replaced with fresh media; the cells were incubated with MTT reagents and the absorbance read at 650 and 575 nm. The 650 reading was subtracted from the 575 reading to correct for background absorbance.
(In general: Tetrazolium dyes change colour on reduction, which living cells bring about.)

Assay [2] relates to MDA-MB-453 Her2 overexpressing human breast cancer cells. Nature of the assay: MTT cell proliferation assay on MDA-MB-453 cells. The format is cell-based. Conditions: MDA-MB-453 cells, MTT assay; for IC50: read-out: IC50, concentration that caused 50% inhibition of cell proliferation.
Description: Cells were exposed to increasing concentrations of agents for 96 h and the number of viable cells determined by the MTT assay.
The target of another assay is Na+-K+-ATPase. Nature of the assay: Enzymatic assay of ATPase activity. The format is biochemical. Conditions: purified enzyme, in vitro; read-out: 50% inhibition, IC50 value, of Na+-K+-ATPase activity. Here is the method: The enzymatic assay of ATPase (adenosine 5′-triphosphatase, EC 3.6.1.3) followed the Sigma Prod. No. A-7510 protocol (Sigma-Aldrich, St. Louis, Mo., USA). Agents (0.05 ml) were pipetted with ATPase (0.05 ml, 0.5 units/ml, Sigma-Aldrich, St. Louis, Mo., USA), mixed and equilibrated for 5 min at 37° C. Taussky-Shorr reagent (10 ml of 10% ammonium molybdate in 10 N H2SO4) was pipetted to 70 ml H2O, 5 g of ferrous sulfate heptahydrate was added, and the volume was brought to 100 ml with H2O. Test supernatant (0.5 ml) and H2O (0.5 ml) were mixed and incubated at 25° C., and the absorbance read at A660 nm.
To determine whether the Na+-K+-ATPase is involved in the mechanism of action of CA and curcumin, the ability of these agents to inhibit the in vitro activity of the purified enzyme was assayed.

The test system of assay [3] is MDA-MB-468 triple negative breast cancer cells. As to the kind of experiment: MTT cell proliferation assay on MDA-MB-468 cells. The format is cell-based, human. The conditions noted are these: Homo sapiens, MDA-MB-468, MDA-MB-468 cells, MTT assay; read-out: IC50 growth inhibition. Here is the method: MDA-MB-453 (ER negative, Her2 overexpressing), MDA-MB-468 (triple negative) and MCF7 (ER positive, Her2 low) cells, HT29 (p53 positive human colon cancer cells) (ATCC, Manassas, Va.) were grown in Dulbecco's Modified Eagle's medium (DMEM) (Gibco BRL Life Technologies, Inc., Rockville, Md.) containing 10% (v/v) fetal bovine serum (FBS) (Gibco BRL) at 37° C., 5% C02. SUM 149 (Her2 overexpressing, ER low) (the gift of Dr. R. Parsons, Columbia University Medical Center, New York, N.Y.) were cultivated in Ham's F-12 medium with 10% FBS. MCF7 and MCF7/Her2-18 (MCF7 cells transfected with a full length Her2 cDNA coding region, 45-fold increase Her2) were the kind gift of Dr. Dennis Slamon (Los Angeles, Calif.). These cells were maintained in RPMI supplemented with 10% FBS plus glutamine (1%) and PSF (1%) (Gibco, Rockville Md.).
MTT assay: the MTT {3-(4,5-dimethyl-2-thiazol)-2,5-diphenyl-2H tetrazolilum bromide} (Dojindo; Tokyo, Japan) cell proliferation assay system (Roche Diagnostic, Mannheim, Germany) was used to determine the sensitivity of the various cell lines to agents. Cells were seeded at 1×10^4 cells/well in 96-well plates and allowed to attach for 24 h. The medium was replaced with fresh medium containing DMSO or compound. The cells were treated for 96 or 120 h, after which they were incubated with MTT reagents and the absorbance read at 650 and 575 nm. For cell growth assays, the data are expressed as mean+/−standard deviation. Control and treated cells were compared using the student's t-test (p<0.05).
To determine the Combination Index (CI), cells were treated with all combinations of 4 or 5 concentrations of each of the agents tested and a solvent control. The results of the MTT assay were analyzed for possible synergistic effects using the median effect principle. Variable ratios of drugs were employees and mutually exclusive equations were assumed.

Each structure is given as a SMILES string. Where “and” joins values, the source holds several entries; their conditions need not be identical. Equal values may be shown once. Read-outs that look alike come from different tables or passages of the source.

With `CC(=O)O[C@@H]1C[C@@]23C[C@@]24CC[C@H](O[C@@H]2OC[C@@H](O)[C@H](O)[C@H]2O)C(C)(C)[C@@H]4CC[C@H]3[C@]2(C)C[C@@H]3O[C@]4(C[C@@H](C)[C@@H]3[C@@]12C)O[C@H](O)[C@@]1(C)O[C@@H]41` [ACT, actein, reference compound], the “% cell proliferation” value amounted to 114.4% in assay [1] (5 μg/ml), 116.1% in assay [1] (10 μg/ml), 108.0% in assay [1] (15 μg/ml) and 98.1% in assay [1] (20 μg/ml).
For `O=C(O[C@@H]1Cc2c(O)cc(O)cc2O[C@@H]1c1cc(O)c(O)c(O)c1)c1cc(O)c(O)c(O)c1` [EGCG, reference compound], in assay [2], the “IC50, concentration that caused 50% inhibition of cell proliferation” value was around 100 µg/mL and the IC50 was determined as 218 µM.
For the compound `COc1cc(/C=C/C(=O)CC(=O)/C=C/c2ccc(O)c(OC)c2)ccc1O` [curcumin], the IC50 at Na+-K+-ATPase was around 2000 nM; in assay [3], 2.3 µg/mL and 6.2 µM; in assay [2] (Homo sapiens) it was 2 µg/mL and 5.4 µM.
Regarding `Oc1ccc(C=Cc2cc(O)cc(O)c2)cc1` [resveratrol, reference compound], the IC50 in assay [2] (Homo sapiens) is 4 µg/mL and 17.5 µM.
Same read-out and setting: then `O=C(/C=C/c1ccc(O)c(O)c1)O[C@H](Cc1ccc(O)c(O)c1)C(=O)O` [rosmarinic acid, reference compound], with ~56 µg/mL and ~150 µM.
